Results on 20 compounds are retold here after patent US10584116B2, “Heterocyclic sulfonamide derivative and medicine containing same” (EA Pharma Co., Ltd., priority 2016, dated 2020).

SMILES strings stand for the structures.

The target in the experiment is human TRPA1 (Homo sapiens (Human), UniProt O75762). Briefly: Measurement of TRPA1 antagonist activity (intracellular calcium increase induced by allylisothiocyanate in 293T cells transfected with human TRPA1). It is filed as cell-based. The settings on record: 293T cells expressing human TRPA1, allylisothiocyanate stimulation, FLIPR Calcium4 fluorescence; read-out: hTRPA1 IC50. On the procedure: Measurement of TRPA1 Antagonist Activity
Chain of human TRPA1 (O75762 whole entry): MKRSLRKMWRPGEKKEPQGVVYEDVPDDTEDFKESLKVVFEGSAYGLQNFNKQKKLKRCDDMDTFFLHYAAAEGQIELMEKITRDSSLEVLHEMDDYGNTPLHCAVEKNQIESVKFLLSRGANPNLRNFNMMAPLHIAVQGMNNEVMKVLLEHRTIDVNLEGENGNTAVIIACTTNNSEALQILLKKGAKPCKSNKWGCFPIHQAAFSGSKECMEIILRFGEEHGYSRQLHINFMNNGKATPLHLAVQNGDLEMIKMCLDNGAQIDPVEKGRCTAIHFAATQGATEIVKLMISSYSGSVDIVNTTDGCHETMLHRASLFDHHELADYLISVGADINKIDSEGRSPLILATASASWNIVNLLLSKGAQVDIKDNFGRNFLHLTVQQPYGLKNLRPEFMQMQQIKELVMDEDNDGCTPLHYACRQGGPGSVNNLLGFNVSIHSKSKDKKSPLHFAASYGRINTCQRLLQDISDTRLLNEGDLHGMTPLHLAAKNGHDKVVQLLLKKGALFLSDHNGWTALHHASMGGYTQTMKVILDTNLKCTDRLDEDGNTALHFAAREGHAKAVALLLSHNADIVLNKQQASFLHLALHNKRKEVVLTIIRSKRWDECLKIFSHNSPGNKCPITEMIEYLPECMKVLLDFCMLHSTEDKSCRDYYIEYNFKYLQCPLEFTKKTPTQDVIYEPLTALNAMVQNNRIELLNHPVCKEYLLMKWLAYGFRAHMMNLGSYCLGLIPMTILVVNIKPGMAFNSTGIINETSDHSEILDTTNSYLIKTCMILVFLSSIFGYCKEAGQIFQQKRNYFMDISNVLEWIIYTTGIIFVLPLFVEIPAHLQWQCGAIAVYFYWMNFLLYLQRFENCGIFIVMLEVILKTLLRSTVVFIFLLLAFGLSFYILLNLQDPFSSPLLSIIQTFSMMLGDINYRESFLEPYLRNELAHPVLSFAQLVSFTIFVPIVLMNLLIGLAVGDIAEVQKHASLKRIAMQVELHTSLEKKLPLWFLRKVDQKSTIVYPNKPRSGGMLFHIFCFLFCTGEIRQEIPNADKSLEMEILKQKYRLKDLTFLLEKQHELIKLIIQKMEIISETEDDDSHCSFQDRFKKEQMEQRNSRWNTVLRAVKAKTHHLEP
Human TRPA1 Expression Plasmid
Using cDNA encoding human TRPA1 (GenBank accession No. NM_007332) (manufactured by Kazusa DNA Research Institute, item No. FHC07217) as a template, primer 1 (SEQ ID NO: 1) and primer 2 (SEQ ID NO: 2), PCR by PfuUltra High-Fidelity DNA Polymerase (Stratagene) was performed, and full-length human TRPA1 gene was amplified.
A recognition site (underlined) of restriction enzyme HindIII was added to the 5′ end of human TRPA1 gene, and XbaI site (underlined) was added to the 3′ end of human TRPA1 gene, and GTT of the template sequence was changed to termination codon TAG (bold). The obtained double stranded DNA was enzyme-digested with HindIII and XbaI, and introduced into a multicloning site of expression plasmid pcDNA3.1/zeo(+) (manufactured by Invitrogen) to give a human TRPA1 expression plasmid.
Human embryonic kidney-derived 293T cells were cultured in Dulbecco's Modified Eagle Medium containing 10% fetal bovine serum, 10 unit penicillin, and 10 μg streptomycin. One day before assay, 3×10^6 of 293T cells were plated on a petri dish having a diameter of 10 cm, and cultured in a CO2 incubator for 24 hr. OPTI-MEM I Reduced Serum Media (Invitrogen) (600 μL), Mirus TransIT-293 (Mirus Bio) (18 μL), and human TRPA1 expression plasmid (6 μg) were mixed, the total amount of the mixture was added to the cells on the petri dish to allow for gene transfer. The cells were recovered about for 8 hr later, plated on a poly-D-lysine coated 384 well black/clear bottom plate at 12,000 cells/well, and cultured overnight.
Measurement of Intracellular Calcium Increase
The medium was removed from the 384 well plate, calcium indicator (Molecular Device, trade name: FLIPR Calcium4 Assay Kit) dissolved in HBSS (Thermo Fisher Scientific) (pH 7.2) containing 20 mM HEPES was added (38 μL/well), and the cells were stained in a CO2 incubator for 1 hr. The 384 well plate was stood at room temperature for not less than 15 min, set on FDSS7000 (Hamamatsu Photonics K.K.), and a test substance solution was added at 10 μL/well. After 10 min, allylisothiocyanate solution (12 μL/well) was added, the relative fluorescence intensity was measured for 5 min after addition of the allylisothiocyanate solution.
Test Substance Preparation
Preparation of Test Substance Solution and Allylisothiocyanate Solution
A test substance solution was prepared to have a composition of HBSS (Thermo Fisher Scientific) (pH 7.2) containing 0.48% dimethyl sulfoxide, a test substance at 4.8-fold concentration of the evaluation concentration, 0.1% bovine serum albumin and 20 mM HEPES. An allylisothiocyanate solution was prepared to have a composition of HBSS (Thermo Fisher Scientific) (pH 7.2) containing 0.1% dimethyl sulfoxide, 100 μM allylisothiocyanate, 0.1% bovine serum albumin and 20 mM HEPES.
Calculation of Antagonist Activity
The activity rate of a test substance at each concentration was calculated, wherein the relative fluorescence intensity change of a well free of a test substance and containing allylisothiocyanate is 100% activity rate, and the relative fluorescence intensity change of a well free of a test substance and allylisothiocyanate is 0% activity rate. The inhibitory rate of a test substance at each concentration was calculated by subtracting the activity rate of the test substance from 100% activity rate, and the concentration of a test substance showing 50% inhibitory rate was calculated as IC50 from the sigmoid approximate curve by XLfit (idbs).
As usually defined, the IC50 is the concentration that gives 50% inhibition. Take `CCn1c(=O)c(CNC(=O)[C@@H]2CCCN2S(=O)(=O)c2cc3ccccc3o2)cn(-c2ccc(C(F)(F)F)cc2)c1=O` [Example 2, (2S)-1-(benzofuran-2-ylsulfonyl)-N-[[3-ethyl-2,4-dioxo-1-[4-(trifluoromethyl)phenyl]pyrimidin-5-yl]methyl]pyrrolidine-2-carboxamide]: the half-maximal inhibitory concentration (IC50) is 26 nM.

As to `CC(C)n1c(=O)c(CNC(=O)[C@@H]2CCCN2S(=O)(=O)c2cc3cc(F)ccc3o2)cn(-c2ccc(C(F)(F)F)cc2)c1=O` [Example 3, (2S)-1-(5-fluorobenzofuran-2-yl)sulfonyl-N-[[3-isopropyl-2,4-dioxo-1-[4-(trifluoromethyl)phenyl]-pyrimidin-5-yl]methyl]pyrrolidine-2-carboxamide], the IC50 is 7.3 nM.

For the compound `CCn1c(=O)c(CNC(=O)[C@@H]2CCCN2S(=O)(=O)c2cc3cc(F)ccc3o2)cn(-c2ccc(C(F)(F)F)cc2)c1=O` [Example 4, (2S)-1-(5-fluorobenzofuran-2-yl)sulfonyl-N-[[3-ethyl-2,4-dioxo-1-[4-(trifluoromethyl)phenyl]pyrimidin-5-yl]methyl]pyrrolidine-2-carboxamide], the IC50 is 11 nM.

For `Cn1c(=O)c(CNC(=O)[C@@H]2CCCN2S(=O)(=O)c2cc3cc(F)ccc3o2)cn(-c2ccc(C(F)(F)F)cc2)c1=O` [Example 5, (2S)-1-(5-fluorobenzofuran-2-yl)sulfonyl-N-[[3-methyl-2,4-dioxo-1-[4-(trifluoromethyl)phenyl]-pyrimidin-5-yl]methyl]pyrrolidine-2-carboxamide], the half-inhibitory concentration (IC50) amounted to 21 nM.

As for `C[C@H](NS(=O)(=O)c1cc2cc(F)ccc2o1)C(=O)NCc1cn(-c2ccc(C(F)(F)F)cc2)c(=O)n(C)c1=O` [Example 6, (2S)-2-[(5-fluorobenzofuran-2-yl)sulfonylamino]-N-[[3-methyl-2,4-dioxo-1-[4-(trifluoromethyl)phenyl]-pyrimidin-5-yl]methyl]propanamide], the IC50 turned out to be 540 nM.

As for `CC(C)n1c(=O)c(CNC(=O)[C@@H]2[C@@H](O)CCN2S(=O)(=O)c2cc3ccccc3o2)cn(-c2ccc(C(F)(F)F)cc2)c1=O` [Example 7, (2S,3S)-1-(benzofuran-2-ylsulfonyl)-3-hydroxy-N-[[3-isopropyl-2,4-dioxo-1-[4-(trifluoromethyl)phenyl]-pyrimidin-5-yl]methyl]pyrrolidine-2-carboxamide], the IC50 worked out at 220 nM.

On to `CC(C)n1c(=O)c(CNC(=O)[C@@H]2[C@@H](O)CCN2S(=O)(=O)c2cc3cc(F)ccc3o2)cn(-c2ccc(C(F)(F)F)cc2)c1=O` [Example 8, (2S,3S)-1-(5-fluorobenzofuran-2-yl)sulfonyl-3-hydroxy-N-[[3-isopropyl-2,4-dioxo-1-[4-(trifluoromethyl)phenyl]pyrimidin-5-yl]methyl]pyrrolidine-2-carboxamide], for which the IC50 was found to be 64 nM.

For the compound `O=C(NCc1cn(-c2ccc(C(F)(F)F)cc2)c(=O)n(C2CCOCC2)c1=O)[C@@H]1CCCN1S(=O)(=O)c1cc2ccccc2o1` [Example 9, (2S)-1-(benzofuran-2-ylsulfonyl)-N-[[2,4-dioxo-3-tetrahydropyran-4-yl-1-[4-(trifluoromethyl)phenyl]-pyrimidin-5-yl]methyl]pyrrolidine-2-carboxamide], the IC50 came to 140 nM.

In the case of `CC(C)n1c(=O)c(CNC(=O)[C@@H]2CCCN2S(=O)(=O)c2cc3c(F)cccc3o2)cn(-c2ccc(C(F)(F)F)cc2)c1=O` [Example 10, (2S)-1-(4-fluorobenzofuran-2-yl)sulfonyl-N-[[3-isopropyl-2,4-dioxo-1-[4-(trifluoromethyl)phenyl]-pyrimidin-5-yl]methyl]pyrrolidine-2-carboxamide], the IC50 came to 25 nM.

Turning to `CC(C)n1c(=O)c(CNC(=O)[C@@H]2CCCN2S(=O)(=O)c2ccc(Cl)s2)cn(-c2ccc(C(F)(F)F)cc2)c1=O` [Example 11, (2S)-1-[(5-chloro-2-thienyl)sulfonyl]-N-[[3-isopropyl-2,4-dioxo-1-[4-(trifluoromethyl)phenyl]-pyrimidin-5-yl]methyl]pyrrolidine-2-carboxamide], the concentration for half-maximal inhibition (IC50) turned out to be 33 nM.

For `CC(C)n1c(=O)c(CNC(=O)[C@@H]2CCCN2S(=O)(=O)c2ccc(F)cc2)cn(-c2ccc(C(F)(F)F)cc2)c1=O` [Example 12, (2S)-1-(4-fluorophenyl)sulfonyl-N-[[3-isopropyl-2,4-dioxo-1-[4-(trifluoromethyl)phenyl]pyrimidin-5-yl]methyl]pyrrolidine-2-carboxamide], the concentration for half-maximal inhibition (IC50) came out at 120 nM.

In the case of `CC(C)n1cc(CNC(=O)[C@@H]2CCCN2S(=O)(=O)c2cc3ccccc3o2)cc(-c2ccc(C(F)(F)F)cc2)c1=O` [Example 13, (2S)-1-(benzofuran-2-ylsulfonyl)-N-[[1-isopropyl-6-oxo-5-[4-(trifluoromethyl)phenyl]-3-pyridyl]methyl]pyrrolidine-2-carboxamide], the IC50 was 27 nM.

For `O=C(NCc1ccc(=O)n(-c2ccc(C(F)(F)F)cc2)c1)[C@@H]1CCCN1S(=O)(=O)c1cc2ccccc2o1` [Example 14, (2S)-1-(benzofuran-2-ylsulfonyl)-N-[[6-oxo-1-[4-(trifluoromethyl)phenyl]-3-pyridyl]methyl]pyrrolidine-2-carboxamide], the IC50 stood at 160 nM.

With `CC(C)n1cc(-c2ccc(C(F)(F)F)cc2)cc(CNC(=O)[C@@H]2CCCN2S(=O)(=O)c2cc3ccccc3o2)c1=O` [Example 15, (2S)-1-(benzofuran-2-ylsulfonyl)-N-[[1-isopropyl-2-oxo-5-[4-(trifluoromethyl)phenyl]-3-pyridyl]methyl]pyrrolidine-2-carboxamide], the IC50 came out at 79 nM.

On to `CC(C)n1c(=O)c(CNC(=O)[C@@H]2C=CCN2S(=O)(=O)c2cc3cc(F)ccc3o2)cn(-c2ccc(C(F)(F)F)cc2)c1=O` [Example 16, (2S)-1-(5-fluorobenzofuran-2-yl)sulfonyl-N-[[3-isopropyl-2,4-dioxo-1-[4-(trifluoromethyl)phenyl]-pyrimidin-5-yl]methyl]-2,5-dihydropyrrole-2-carboxamide], for which the IC50 is 3.6 nM.

Consider `CC(C)n1c(=O)c(CNC(=O)[C@@H]2CC(F)(F)CN2S(=O)(=O)c2cc3cc(F)ccc3o2)cn(-c2ccc(C(F)(F)F)cc2)c1=O` [Example 17, (2S)-4,4-difluoro-1-(5-fluorobenzofuran-2-yl)sulfonyl-N-[[3-isopropyl-2,4-dioxo-1-[4-(trifluoromethyl)phenyl]pyrimidin-5-yl]methyl]pyrrolidine-2-carboxamide], for which the IC50 turned out to be 46 nM.

For the compound `CC(C)n1c(=O)c(CNC(=O)[C@@H]2CCN2S(=O)(=O)c2cc3cc(F)ccc3o2)cn(-c2ccc(C(F)(F)F)cc2)c1=O` [Example 18, (2S)-1-(5-fluorobenzofuran-2-yl)sulfonyl-N-[[3-isopropyl-2,4-dioxo-1-[4-(trifluoromethyl)phenyl]-pyrimidin-5-yl]methyl]azetidine-2-carboxamide], the IC50 was found to be 9 nM.

On to `CC(C)n1c(=O)c(CNC(=O)[C@@H]2CCCN2S(=O)(=O)c2cc3ccccc3s2)cn(-c2ccc(C(F)(F)F)cc2)c1=O` [Example 19, (2S)-1-(benzothiophen-2-ylsulfonyl)-N-[[3-isopropyl-2,4-dioxo-1-[4-(trifluoromethyl)phenyl]-pyrimidin-5-yl]methyl]pyrrolidine-2-carboxamide], for which the IC50 was 56 nM.

For the compound `O=C(NCc1ccc(=O)n(-c2ccc(C(F)(F)F)cc2)c1)[C@@H]1CCCN1S(=O)(=O)c1cc2cc(F)ccc2o1` [Example 22, (2S)-1-(5-fluorobenzofuran-2-yl)sulfonyl-N-[[6-oxo-1-[4-(trifluoromethyl)phenyl]-3-pyridyl]methyl]pyrrolidine-2-carboxamide], the IC50 was found to be 60 nM.

`CC(C)n1c(=O)c(CNC(=O)[C@@H]2CCCN2S(=O)(=O)c2cc3cnccc3o2)cn(-c2ccc(C(F)(F)F)cc2)c1=O` [Example 23, (2S)-1-fro[3,2-c]pyridin-2-ylsulfonyl-N-[[3-isopropyl-2,4-dioxo-1-[4-(trifluoromethyl)phenyl]-pyrimidin-5-yl]methyl]pyrrolidine-2-carboxamide]: the IC50 was found to be 20 nM.
